Positions of bridges follow the written chain, without caps; N, C: chain ends. Non-standard residues stand in square brackets, D forms with d. Residues, ends and D or L forms follow the SMILES beside them. Chains are numbered I, II in the order given. *: point of attachment. Docosanoyl = CCCCCCCCCCCCCCCCCCCCCC(=O)*; Arachidoyl = CCCCCCCCCCCCCCCCCCCC(=O)*; Dab = NCC[C@H](N)C(=O)O
Columns and labels:
CHO-K1 cells = assay: Delivery of reporter mRNA with CPPs in cell culture (luciferase luminescence 24 h post-transfection); type: cell-based; conditions: for Average RLU/mg (reporter levels post-transfection of mRNA): firefly luciferase mRNA, 0.1 μg per well, charge ratio 3:1, serum containing media, 24 h, RLU normalised to total protein in lysate; for Efficiency of mRNA transfection/delivery / Delivery of mRNA compared to NF54 / Delivery of mRNA compared to NF55: in words; for Efficiency of mRNA transfection/delivery: FIG. 1 / Table 2, cell culture; for Delivery of mRNA compared to NF54: comparator NF54; for Delivery of mRNA compared to NF55: comparator NF55
Procedure: FIG. 1: Delivery of reporter mRNA with CPPs in cell culture—evaluation of reporter levels post-transfection (relative light units normalised to total protein in the cell lysate (RLU/mg)). Naked mRNA treated cells were used as controls and Lipofectamine3000 (LF3000) was used to compare the transfection efficacy with a liposome-based transfection reagent.
Adherent CHO-K1 cells were grown in Dulbecco's Modified Eagle's Medium (DMEM), which were supplemented with 0.1 mM non-essential amino acids, 1.0 mM sodium pyruvate, 100 U/ml penicillin, and […]. For complete media, 10% (final) fetal bovine serum (FBS) was added. Cells were maintained in a humidified incubator at 37 °C, 5% CO2. Cell viability and confluence was assessed daily and the cell density was reduced regularly. For cell counting, we used the CytoSMART cell counter accompanied by 0.4% trypan blue staining prior measurement. The multi-well plates with cell cultures used for experiments were incubated in a humidified incubator at 37 °C, 5% CO2.
For in vitro experiments 0.1 μg of nucleic acid (plasmid DNA (pDNA) or mRNA) was used per 96-well plate well. For CPP/NA complex formation, the diluted NA was mixed with CPP in water. Complexes were formed based on the theoretical charge ratio (CR) of positive charges from the peptide in excess to the negative charges from nucleic acid backbone, at charge ratio 3:1 with peptide in excess. Commercial reagent Lipofectamine3000 (LF3000) was used according to the manufacturer's recommendations for the transfection of adherent cells.
For reporter luminescence (expressed from firefly luciferase encoding mRNA or plasmid pDNA) assessment in adherent cell culture, 10,000 cells per 96-well plate well were seeded in 100 μl of media one day prior to transfection. Shortly before transfection, cell media was replaced with 100 μl of serum containing (10% foetal bovine serum) DMEM media. CPPs and mRNA or pDNA were mixed at a charge ratio 3:1 in ultrapure water and incubated at room temperature before addition to cells in serum containing media. Cells were transfected with 0.1 μg of mLuc per well.
24 hours post-transfection, the media was aspirated, cells were washed with 1×PBS, and 30 μl of lysis buffer (0.1% Triton X100 in 1×PBS) was added. Cells were incubated with lysis buffer for 20 min. to lyse the cells. From the lysate, 20 μl was transferred to a black frame white well 96-well plate for luminescence measurement after addition of substrate luciferin (PerkinElmer) in buffer. The luminescence signal was detected with GloMax® 96 microplate luminometer equipped with GloMax® 1.9.2 software (Promega). RLU values were converted to RLU/mg by normalization to total protein in cell lysate, reflecting total number of cells. For protein detection, a Pierce™ BCA Protein Assay Kit was used.
The present inventors have previously reported CPPs developed from the NickFect (NF) and PepFect (PF) families for plasmid (pDNA), siRNA and miRNA delivery (see, e.g. WO 2020/144317, WO 2010/039088 and WO 2012/113846). With the emergence of mRNA-based therapeutics, it was decided to investigate peptides for their ability to deliver mRNA. It was assumed that CPPs that are efficient for siRNA and miRNA delivery, e.g. histidine containing CPPs (Porosk et. al. (2019)), may be good candidates for the delivery of mRNA. Therefore, CPPs from each main family (NF55-, PF14- and NF70-derived CPPs) were tested for mRNA delivery/transfection. Naked mRNA treated and untreated cells were used as control groups. LF3000 was used to compare the transfection efficacy of liposome-based transfection reagents with the CPPs (FIG. 1).

spleen of BALB/c mice = assay: In vivo delivery of mRNA with CPPs - reporter levels in the spleen; conditions: for Efficacy of mRNA delivery into the spleen in vivo / Delivery of mRNA in vivo compared to NF54 and/or NF55: in words; for Efficacy of mRNA delivery into the spleen in vivo: FIG. 5 / Table 5; for Delivery of mRNA in vivo compared to NF54 and/or NF55: comparator NF54 and/or NF55; for Reporter levels in the spleen (RLU): mRNA, tail vein injection, spleens harvested 16 hours after single injection, whole tissue homogenate
Procedure: FIG. 5: Delivery of mRNA with CPPs in vivo—reporter levels in the spleen. Spleens were harvested post mortem 16 hours post-injection. The reporter levels (RLU) were evaluated from the whole tissue homogenate.
The transfection complexes (CPP/mRNA) were formed using 10 μg of mRNA mixed with each peptide at indicated charge ratios (CRs) in MQ water in a final volume of 100 μl. CRs were calculated theoretically and account for both the positive charges of the peptide and negative charges of the nucleic acid. The transfection complexes (CPP/mRNA and CPP/pDNA) were formed using 50 μg of mRNA mixed with each peptide at indicated charge ratios (CRs) in MQ water in a final volume of 168 μl. The complexes were incubated for 30 minutes at room temperature and then mixed with equal volume of 10% glucose (resulting in a final solution of 5% glucose in a total volume of 200 μl for 10 μg dose groups and 336 μl for 50 μg dose groups) and immediately injected intravenously via the tail vein.
The reporter gene (luciferase) expression levels were evaluated from the tissue homogenate post mortem 16-24 h after single injection.
CPPs and mRNA complexes were injected through the tail vein of BALB/c mice, spleens were harvested 16 hours after the single injection and reporter signal was measured from the whole tissue homogenate (FIG. 5 and Table 5).

Compound | Average RLU/mg (reporter levels post-transfection of mRNA) (CHO-K1 cells) | Efficiency of mRNA transfection/delivery (CHO-K1 cells) | Delivery of mRNA compared to NF54 (CHO-K1 cells) | Delivery of mRNA compared to NF55 (CHO-K1 cells) | Efficacy of mRNA delivery into the spleen in vivo (spleen of BALB/c mice) | Delivery of mRNA in vivo compared to NF54 and/or NF55 (spleen of BALB/c mice) | Reporter levels in the spleen (RLU) (spleen of BALB/c mice)
CCCCCCCCCCCCCCCCCCCC(=O)N[C@@H](C)C(=O)NCC(=O)N[C@@H](Cc1ccc(O)cc1)C(=O)N[C@@H](CC(C)C)C(=O)N[C@@H](CC(C)C)C(=O)NCC(=O)NCC[C@H](N)C(=O)N[C@@H](CC(C)C)C(=O)N[C@@H](CCCCN)C(=O)N[C@@H](C)C(=O)N[C@@H](CC(C)C)C(=O)N[C@@H](C)C(=O)N[C@@H](C)C(=O)N[C@@H](CC(C)C)C(=O)N[C@@H](C)C(=O)N[C@@H](CCCCN)C(=O)N[C@@H](C)C(=O)N[C@H](C(=O)N[C@@H](CC(C)C)C(N)=O)[C@@H](C)CC [NF426] (I: H-[Dab]LKALAALAKAIL-NH2 / II: Arachidoyl-AGYLLG; amide I:1-II:C) | 1 960 000 000 RLU/mg | the most efficient | equivalent delivery of cargo such as mRNA to NF54 | good improvement in delivery of mRNA over NF55 | delivered mRNA into the spleen in vivo with high efficacy | good improvement in mRNA delivery in vivo over NF55 | 259 807 RLU
CCCCCCCCCCCCCCCCCCCCCC(=O)N[C@@H](C)C(=O)NCC(=O)N[C@@H](Cc1ccc(O)cc1)C(=O)N[C@@H](CC(C)C)C(=O)N[C@@H](CC(C)C)C(=O)NCC(=O)NCCC[C@H](N)C(=O)N[C@H](C(=O)N[C@@H](CC(N)=O)C(=O)N[C@@H](CC(C)C)C(=O)N[C@@H](CCCCN)C(=O)N[C@@H](C)C(=O)N[C@@H](CC(C)C)C(=O)N[C@@H](C)C(=O)N[C@@H](C)C(=O)N[C@@H](CC(C)C)C(=O)N[C@@H](C)C(=O)N[C@@H](CCCCN)C(=O)N[C@@H](C)C(=O)N[C@H](C(=O)N[C@@H](CC(C)C)C(N)=O)[C@@H](C)CC)[C@@H](C)CC [NF411] | 2 090 000 000 RLU/mg | the most efficient | equivalent delivery of mRNA to NF54 | good improvement in delivery of mRNA over NF55 | delivered mRNA into the spleen in vivo with high efficacy |  | 161 716 RLU
CCCCCCCCCCCCCCCCCCCCCC(=O)N[C@@H](C)C(=O)NCC(=O)N[C@@H](Cc1ccc(O)cc1)C(=O)N[C@@H](CC(C)C)C(=O)N[C@@H](CC(C)C)C(=O)NCC(=O)NCCCC[C@H](N)C(=O)N[C@H](C(=O)N[C@@H](CC(N)=O)C(=O)N[C@@H](CC(C)C)C(=O)N[C@@H](CCCCN)C(=O)N[C@@H](C)C(=O)N[C@@H](CC(C)C)C(=O)N[C@@H](C)C(=O)N[C@@H](C)C(=O)N[C@@H](CC(C)C)C(=O)N[C@@H](C)C(=O)N[C@@H](CCCCN)C(=O)N[C@@H](C)C(=O)N[C@H](C(=O)N[C@@H](CC(C)C)C(N)=O)[C@@H](C)CC)[C@@H](C)CC [NF413] (I: H-KINLKALAALAKAIL-NH2 / II: Docosanoyl-AGYLLG; amide I:1-II:C) | 678 000 000 RLU/mg |  |  |  |  |  | 50 495 RLU
CCCCCCCCCCCCCCCCCC(=O)N[C@@H](C)C(=O)NCC(=O)N[C@@H](Cc1ccc(O)cc1)C(=O)N[C@@H](CC(C)C)C(=O)N[C@@H](CC(C)C)C(=O)NCC(=O)NCCC[C@H](N)C(=O)N[C@H](C(=O)N[C@@H](CC(N)=O)C(=O)N[C@@H](CC(C)C)C(=O)N[C@@H](CCCCN)C(=O)N[C@@H](C)C(=O)N[C@@H](CC(C)C)C(=O)N[C@@H](C)C(=O)N[C@@H](C)C(=O)N[C@@H](CC(C)C)C(=O)N[C@@H](C)C(=O)N[C@@H](C)C(=O)N[C@@H](CCCCN)C(=O)N[C@H](C(=O)N[C@@H](CC(C)C)C(N)=O)[C@@H](C)CC)[C@@H](C)CC [NF54] | 2 160 000 000 RLU/mg | the most efficient |  | significantly improved delivery of mRNA over NF55 | delivered mRNA into the spleen in vivo with high efficacy | good improvement in mRNA delivery in vivo over NF55 | 225 675 RLU
CCCCCCCCCCCCCCCC(=O)N[C@@H](C)C(=O)NCC(=O)N[C@@H](Cc1ccc(O)cc1)C(=O)N[C@@H](CC(C)C)C(=O)N[C@@H](CC(C)C)C(=O)NCC(=O)NCCC[C@H](N)C(=O)N[C@H](C(=O)N[C@@H](CC(N)=O)C(=O)N[C@@H](CC(C)C)C(=O)N[C@@H](CCCCN)C(=O)N[C@@H](C)C(=O)N[C@@H](CC(C)C)C(=O)N[C@@H](C)C(=O)N[C@@H](C)C(=O)N[C@@H](CC(C)C)C(=O)N[C@@H](C)C(=O)N[C@@H](CCCCN)C(=O)N[C@@H](C)C(=O)N[C@H](C(=O)N[C@@H](CC(C)C)C(N)=O)[C@@H](C)CC)[C@@H](C)CC [NF419] | 491 000 000 RLU/mg |  |  |  | delivered mRNA into the spleen in vivo with high efficacy |  | 179 114 RLU
